Measured values reported in patent publication US20120052056A1, “COMPOSITION FOR IMPROVING BLOOD CIRCULATION CONTAINING FERMENTED TEA, AND PHARMACEUTICAL AND HEALTH-FOOD COMPOSITIONS COMPRISING THE SAME” (priority 2009, published 2012).

Test system: rats fed high-cholesterol diet inducing hyperlipidemia
Assay: Reduction in the serum and liver lipid levels in animal model
Assay type: in vivo
Conditions: 200 mg/kg oral once a day for 4 weeks with hyperlipidemia-inducing diet
Experimental: Eight 8-week-old female rats weighing 250-300 g were housed in each polycarbonate cage under a 12 hr light/12 hr dark cycle at a constant temperature of 22±2° C. and a relative humidity of 55±15%. The animals were fed with a normal diet and a high-cholesterol diet and given drinking water ad libitum. The test animals were divided into four groups: a normal group, a control group, a positive control group, and a test group. The normal group was provided only with general feed, the control group was fed with a normal diet containing 1% cholesterol and 0.5% cholic acid to cause hyperlipidemia, and the positive control group was administered with fenofibric acid (200 mg/kg) that is used as an agent for treating hyperlipidemia, in which the fenofibric acid was suspended in 1% methyl cellulose (MC) and administered orally. The test group was administered orally with the post-fermented tea extract and the green tea extract every day together with a hyperlipidemia-inducing diet, in which the post-fermented tea extract and the green tea extract (200 mg/kg) were provided by oral administration once a day for 4 weeks. After the rats of each group were fasted for 12 hours, a blood sample was taken from the orbital vein and centrifuged at 10000 rcf for 10 minutes. The resulting serum was used to evaluate blood total cholesterol, LDL cholesterol and HDL-cholesterol levels. The rat's liver was collected and used to evaluate the liver cholesterol and triglyceride levels. The above analysis was carried out using an automatic blood analyzer and a Roche diagnostic kit, and the results of the analysis are shown in Table 4 (serum lipids) below and Table 5 (liver lipids).

CC(C)(Oc1ccc(C(=O)c2ccc(Cl)cc2)cc1)C(=O)O [Positive control group, fenofibric acid]
Liver lipids: Total cholesterol (liver): 15.43 ± 0.52 µg/mg | Liver lipids: Triglyceride (liver): 185.39 ± 23.84 µg/mg | Serum lipids: HDL-cholesterol (serum): 87.89 ± 6.84 mg/dL | Serum lipids: LDL-cholesterol (serum): 75.34 ± 2.80 mg/dL | Serum lipids: Total cholesterol (serum): 112.42 ± 13.33 mg/dL
